Consider five compounds from patent US11787769B2 (priority 2019, dated 2023).

Read-outs that look alike come from different tables or passages of the source.

The subject of one data set is PR8-NS1-Gluc virus. Briefly: microbe, parasite or virus in culture. Type of data set: cell-based, influenza A PR8. The note with it: for EC50 / EC90: Influenza A virus, PR8, MDCK, 48 h.
Data set [1] deals with PR8-PB2-Gluc, influenza A/Puerto Rico/8/1934 (PR8) H1N1 virus. The data set is described as follows: microbe, parasite or virus in culture. The format is cell-based. The settings on record: read-out: EC50 (nM), antiviral activity in the infectious IAV.
The next data set has as its target CYP2C9 (Homo sapiens, UniProt P11712). The data set is described as follows: biochemical.
Data set [2] in a line: Hepatic metabolic stability in mouse liver microsomes. The settings on record: mouse LM, in the presence of NADPH. A general note: Liver microsomes are a subcellular fraction often used to study metabolism.
Data set [3] relates to influenza A virus (HA of H5N1, Goose/Qinghai/59/05). The data set is described as follows: microbe, parasite or virus in culture. The format is cell-based. The settings on record: for inhibition at 12.5 µM: H5N1, A549, 12.5 μM, read-out: H5N1 pseudotype assay % inhibition at 12.5 μM.
A further data set has as its target CYP3A4 (Homo sapiens, UniProt P08684). Briefly: biochemical.
Data set [4] in a line: Hepatic metabolic stability in human liver microsomes. The note with it: human LM, in the presence of NADPH.
A short description of data set [5]: Pharmacokinetic analysis of plasma and liver levels in BALB/c mice.
Setting [6] is: Influenza A virus, H5N1, A549, read-out: H5N1 pseudotype assay EC50 (μM).

Sequence of CYP3A4 (P08684 whole entry): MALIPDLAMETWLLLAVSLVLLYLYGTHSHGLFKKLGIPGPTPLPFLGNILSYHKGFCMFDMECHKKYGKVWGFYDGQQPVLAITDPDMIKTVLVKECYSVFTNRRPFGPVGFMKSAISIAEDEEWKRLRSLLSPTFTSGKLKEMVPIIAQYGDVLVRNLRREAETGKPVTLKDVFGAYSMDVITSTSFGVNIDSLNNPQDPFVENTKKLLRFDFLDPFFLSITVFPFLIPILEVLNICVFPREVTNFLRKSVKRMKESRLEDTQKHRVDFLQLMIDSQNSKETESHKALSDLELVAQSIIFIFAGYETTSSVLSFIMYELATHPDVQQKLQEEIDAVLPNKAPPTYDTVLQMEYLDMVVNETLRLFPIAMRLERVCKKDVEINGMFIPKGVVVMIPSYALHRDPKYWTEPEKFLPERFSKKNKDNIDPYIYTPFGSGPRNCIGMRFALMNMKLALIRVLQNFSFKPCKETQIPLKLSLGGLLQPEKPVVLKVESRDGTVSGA
Sequence of CYP2C9 (P11712 whole entry): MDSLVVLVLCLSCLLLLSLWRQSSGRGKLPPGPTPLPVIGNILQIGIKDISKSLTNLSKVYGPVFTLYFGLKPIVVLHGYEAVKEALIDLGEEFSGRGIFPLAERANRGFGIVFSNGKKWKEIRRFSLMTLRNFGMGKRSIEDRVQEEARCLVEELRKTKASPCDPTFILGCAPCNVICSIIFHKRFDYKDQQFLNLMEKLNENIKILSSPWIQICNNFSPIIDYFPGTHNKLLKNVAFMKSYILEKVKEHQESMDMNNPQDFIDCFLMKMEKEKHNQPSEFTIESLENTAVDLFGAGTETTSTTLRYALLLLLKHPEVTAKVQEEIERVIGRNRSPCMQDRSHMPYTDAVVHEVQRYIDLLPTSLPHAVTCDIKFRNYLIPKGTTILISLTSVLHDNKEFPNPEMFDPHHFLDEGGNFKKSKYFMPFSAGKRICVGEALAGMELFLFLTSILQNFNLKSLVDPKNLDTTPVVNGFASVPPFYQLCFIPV

By EC30 is commonly meant the concentration at which the effect reaches the 30% level. Higher therefore signals weaker potency. One may read the EC70 as the point of the concentration-response curve where the effect stands at 70%. As usually defined, the EC80 is the concentration at which the effect reaches the 80% level. Read a high EC80 as weaker potency. In general, EC50 refers to the midpoint of the concentration-response curve. As usually defined, the EC90 is the concentration needed for an effect of 90%. By IC50 is commonly meant the midpoint of a concentration-inhibition curve. High values mean lower potency, low ones higher potency. Broadly, the inhibition is how much of the control response was suppressed. As a reminder, the Cmax is the maximum level reached in the sampled fluid or tissue. The Tmax is the time at which the peak concentration occurs. Regarding `CC(C)(C)N1CCC(NC(=O)c2ccc(C(F)(F)F)cc2Cl)CC1` [Compound 16, N-(1-(tert-Butyl)piperidin-4-yl)-2-chloro-4-(trifluoromethyl)benzamide], in the data set with PR8-NS1-Gluc virus, the 30% effect concentration (EC30) is on record as 134 nM. Also, the “EC40” value in the data set with PR8-NS1-Gluc virus is 160 nM. Also, in the data set with PR8-NS1-Gluc virus, the “EC60” value turned out to be 219 nM. In the data set with PR8-NS1-Gluc virus, the 70% effect concentration (EC70) is recorded as 260 nM. Besides, the concentration for an effect of 80% (EC80) in the data set with PR8-NS1-Gluc virus is 321 nM. The EC50 in the data set with PR8-NS1-Gluc virus is 187 nM; in data set [1] (Influenza A virus, MDCK), 72 nM; in data set [3] (setting [6]) it was 0.24 ± 0.09 µM. The compound further yielded an EC90 with PR8-NS1-Gluc virus of 439 nM. Further, the concentration for half-maximal inhibition (IC50) on CYP2C9 and against CYP3A4 was more than 100000 nM in each case. Besides, the “percentage of compound remaining after 60 minutes” value in data set [2] came to 94%; in data set [4], 97%. Moreover, the inhibition at 12.5 µM in data set [3] (Influenza A virus) was 99%. Moreover, the Cmax in data set [5] (5x the dose p.o. (50 mg/kg), plasma) came to 7641 ng/mL; in data set [5] (read-out: Cmax level in the plasma, 10 mg/kg i.p.) it was 3.12 µM. In addition, the “Cmax p.o. relative to i.p. (fold higher)” value in data set [5] (5x the dose p.o. vs 10 mg/kg i.p., plasma) is recorded as 7 ×. In data set [5] (BALB/c mice, p.o. vs i.p. Cmax), the oral bioavailability result is on record as “excellent oral bioavailability”. Besides, the Tmax in data set [5] (BALB/c, mouse, plasma, intraperitoneal, oral) is 30 min; in data set [5] (i.p. (10 mg/kg), liver) it was 15 min; in data set [5] (i.p. (10 mg/kg), plasma), 30 min; in data set [5] (p.o. (50 mg/kg), liver) it was 60 min; in data set [5] (p.o. (50 mg/kg), plasma), 30 min. For the same compound, the “AUC(0-8 h)” value worked out at 66400 ng·h/g in data set [5] (i.p. (10 mg/kg), liver); 3282 ng·h/g in data set [5] (i.p. (10 mg/kg), plasma); 292000 ng·h/g in data set [5] (p.o. (50 mg/kg), liver); 23705 ng·h/g in data set [5] (p.o. (50 mg/kg), plasma). Moreover, the T1/2 in data set [5] (i.p. (10 mg/kg), liver) was 148 min; in data set [5] (i.p. (10 mg/kg), plasma), 91.8 min; in data set [5] (p.o. (50 mg/kg), liver), 155 min; in data set [5] (p.o. (50 mg/kg), plasma), 130 min.
With `CC(C)N1CC[C@H](NC(=O)c2ccc(C(F)(F)F)cc2Cl)[C@H](F)C1` [Compound 32, 2-Chloro-N-((3R,45)-3-fluoro-1-isopropylpiperidin-4-yl)-4-(trifluoromethyl)benzamide], the results for the EC50 in data set [1] and in data set [3] (read-out: H5N1 pseudotype assay EC50) were 263 ± 33 nM and 0.63 ± 0.48 µM, respectively. Further, the “H5N1 pseudotype assay % inhibition at 12.5 μM” value in data set [3] (12.5 μM) was determined as 99%.
With `CC(C)N1CC[C@@H](NC(=O)c2ccc(C(F)(F)F)cc2Cl)[C@H](F)C1` [Compound 33, 2-Chloro-N-((3R,4R)-3-fluoro-1-isopropylpiperidin-4-yl)-4-(trifluoromethyl)benzamide], the EC50 in data set [1] (Influenza A virus, MDCK) is 989 ± 323 nM; in data set [3] (setting [6]) it was 2.93 ± 0.3 µM. Moreover, the inhibition at 12.5 µM in data set [3] (Influenza A virus) came to 87%.
The matching figures for `CC(C)N1CC[C@@H](NC(=O)c2ccc(C(F)(F)F)cc2Cl)[C@@H](F)C1` [Compound 34, 2-Chloro-N-((3S,4R)-3-fluoro-1-isopropylpiperidin-4-yl)-4-(trifluoromethyl)benzamide]: 195 ± 49 nM, 0.67 ± 0.2 µM and 99%.
As for `CCC(CC)O[C@@H]1C=C(C(=O)O)C[C@H](N)[C@H]1NC(C)=O` [Oseltamivir carboxylate, reference compound], in the data set with PR8-NS1-Gluc virus, the “EC30” value turned out to be 160 nM, the “EC40” value was found to be 229 nM, the “EC60” value is reported as 441 nM and the 70% effect concentration (EC70) worked out at 629 nM. In the data set with PR8-NS1-Gluc virus, the 80% effect concentration (EC80) was 972 nM, the EC50 worked out at 318 nM and the EC90 worked out at 1870 nM. In addition, the EC50 in data set [1] (Influenza A virus, MDCK) worked out at 181 ± 69 nM.
